From US12187723B2 (BRISTOL-MYERS SQUIBB COMPANY, priority 2019, dated 2025)

These compounds were tested against T1, human TLR9 (Homo sapiens, UniProt Q9NR96) (assay: TLR9 inhibition reporter assay (HEK-Blue SEAP)). Details: HEK-Blue cells overexpressing human TLR9, ODN2006 5 nM, 22 hour incubation.
T1 construct: host or cells: HEK-Blue cells
T1 sequence (Q9NR96 26-1032): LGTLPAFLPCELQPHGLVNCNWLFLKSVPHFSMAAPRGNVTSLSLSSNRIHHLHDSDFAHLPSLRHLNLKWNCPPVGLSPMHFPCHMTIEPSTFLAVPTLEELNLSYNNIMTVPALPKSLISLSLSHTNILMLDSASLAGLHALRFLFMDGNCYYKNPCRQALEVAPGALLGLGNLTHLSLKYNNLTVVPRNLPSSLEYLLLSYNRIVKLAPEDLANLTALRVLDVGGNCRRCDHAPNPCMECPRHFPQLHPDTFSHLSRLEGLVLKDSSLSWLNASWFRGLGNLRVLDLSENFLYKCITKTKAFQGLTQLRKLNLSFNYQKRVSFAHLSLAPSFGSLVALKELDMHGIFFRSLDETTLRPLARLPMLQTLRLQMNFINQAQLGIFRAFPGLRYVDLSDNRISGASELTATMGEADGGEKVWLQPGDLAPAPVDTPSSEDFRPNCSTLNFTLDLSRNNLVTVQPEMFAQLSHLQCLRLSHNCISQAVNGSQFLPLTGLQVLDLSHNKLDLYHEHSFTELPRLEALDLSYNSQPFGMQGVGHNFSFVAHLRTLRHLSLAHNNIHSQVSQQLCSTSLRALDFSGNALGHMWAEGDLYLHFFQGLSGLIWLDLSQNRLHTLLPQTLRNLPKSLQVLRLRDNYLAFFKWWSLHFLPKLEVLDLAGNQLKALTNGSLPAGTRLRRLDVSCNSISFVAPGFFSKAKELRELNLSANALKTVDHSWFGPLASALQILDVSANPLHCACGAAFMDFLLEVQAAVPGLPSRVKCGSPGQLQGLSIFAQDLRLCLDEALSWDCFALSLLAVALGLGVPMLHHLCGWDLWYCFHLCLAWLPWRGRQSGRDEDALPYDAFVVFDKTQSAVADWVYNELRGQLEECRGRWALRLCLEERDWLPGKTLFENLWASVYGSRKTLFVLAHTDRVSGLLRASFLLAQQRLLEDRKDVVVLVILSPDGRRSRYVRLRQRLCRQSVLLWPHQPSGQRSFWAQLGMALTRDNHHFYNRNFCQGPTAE
Type: cell-based
Procedure, shortened: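 Compound treatment: 30 min, RT, 0.05 nM–50 μM final. Agonist: TLR7 gardiquimod 7.5 μM; TLR8 R848 15.9 μM; TLR9 ODN2006 5 nM. Incubation 22 h, 37 °C, 5% CO2. Readout SEAP, HEK-Blue Detection.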
For `Cc1cc2c(cc1-c1cc(C)c3ncnn3c1)[nH]c(=O)n2[C@H]1CCCN(C)C1` [Example 11, (S)-6-methyl-5-(8-methyl-[1,2,4]triazolo[1,5-a]pyridin-6-yl)-1-(1-methylpiperidin-3-yl)-1,3-dihydro-2H-benzo[d]imidazol-2-one], the IC50 was 9.55 µM.
With `COc1cc(-c2cc3[nH]c(=O)n([C@H]4CC[C@@H](N(C)C)CC4)c3cc2C(C)C)cn2ncnc12` [Example 191, 1-((1s,4s)-4-(dimethylamino)cyclohexyl)-6-isopropyl-5-(8-methoxy-[1,2,4]triazolo[1,5-a]pyridin-6-yl)-1,3-dihydro-2H-benzo[d]imidazol-2-one] the IC50 was 11.7 µM.
`CCc1cc2c(cc1-c1cc(OC)c3ncnn3c1)[nH]c(=O)n2[C@@H]1CCCN(CC)C1` [Example 171, (R)-6-ethyl-1-(1-ethylpiperidin-3-yl)-5-(8-methoxy-[1,2,4]triazolo[1,5-a]pyridin-6-yl)-1,3-dihydro-2H-benzo[d]imidazol-2-one] showed an IC50 of 10.7 µM.
With `COc1cc(-c2cc3[nH]c(=O)n([C@H]4CC[C@H](NC(C)C)CC4)c3cc2C(C)C)cn2ncnc12` [Example 203, 6-isopropyl-1-((1r,4s)-4-(isopropylamino)cyclohexyl)-5-(8-methoxy-[1,2,4]triazolo[1,5-a]pyridin-6-yl)-1,3-dihydro-2H-benzo[d]imidazol-2-one] the IC50 was 30.9 µM.
`CCc1cc2c(cc1-c1cc(OC)c3ncnn3c1)[nH]c(=O)n2[C@@H]1CCCN(C(C)C)C1` [Example 172, (R)-6-ethyl-1-(1-isopropylpiperidin-3-yl)-5-(8-methoxy-[1,2,4]triazolo[1,5-a]pyridin-6-yl)-1,3-dihydro-2H-benzo[d]imidazol-2-one] gave an IC50 of 6.83 µM.
In the case of `Cc1c(-c2cc3[nH]c(=O)n([C@H]4CC[C@@H](NCC(C)(C)C)CC4)c3cc2C(C)C)cn2ncnc2c1C` [Example 190, 5-(7,8-dimethyl-[1,2,4]triazolo[1,5-a]pyridin-6-yl)-6-isopropyl-1-((1s,4s)-4-(neopentylamino)cyclohexyl)-1,3-dihydro-2H-benzo[d]imidazol-2-one], the IC50 is reported as 5.05 µM.
`Cc1c(-c2cc3[nH]c(=O)n([C@H]4CC[C@@H](NC5COC5)CC4)c3cc2C(C)C)cn2ncnc2c1C` [Example 188, 5-(7,8-dimethyl-[1,2,4]triazolo[1,5-a]pyridin-6-yl)-6-isopropyl-1-((1s,4s)-4-(oxetan-3-ylamino)cyclohexyl)-1,3-dihydro-2H-benzo[d]imidazol-2-one] showed an IC50 of 22.2 µM.
`COCCN1CCC[C@H](n2c(=O)[nH]c3cc(-c4cc(OC)c5ncnn5c4)c(C(C)C)cc32)C1` [Example 221, (S)-6-isopropyl-5-(8-methoxy-[1,2,4]triazolo[1,5-a]pyridin-6-yl)-1-(1-(2-methoxyethyl)piperidin-3-yl)-1,3-dihydro-2H-benzo[d]imidazol-2-one] showed an IC50 of 20.6 µM.
In the case of `COc1cc(-c2cc3[nH]c(=O)n([C@@H]4CCCN(C5CCOC5)C4)c3cc2C(C)C)cn2ncnc12` (stereo partly drawn) [Example 217, 6-isopropyl-5-(8-methoxy-[1,2,4]triazolo[1,5-a]pyridin-6-yl)-1-((3R)-1-(tetrahydrofuran-3-yl)piperidin-3-yl)-1,3-dihydro-2H-benzo[d]imidazol-2-one], the IC50 is reported as greater than 50 µM.
Compound `CCc1cc2c(cc1-c1cc(OC)c3ncnn3c1)[nH]c(=O)n2[C@@H]1CCCN(CC2CCCC2)C1` [Example 209, (R)-1-(1-(cyclopentylmethyl)piperidin-3-yl)-6-ethyl-5-(8-methoxy-[1,2,4]triazolo[1,5-a]pyridin-6-yl)-1,3-dihydro-2H-benzo[d]imidazol-2-one] has an IC50 of 12.7 µM.
Work on `COc1cc(-c2cc3[nH]c(=O)n(C4CCC(N5CCNC(=O)C5)CC4)c3cc2C(C)C)cn2ncnc12` (single isomer, unassigned) [Example 233, 6-isopropyl-5-(8-methoxy-[1,2,4]triazolo[1,5-a]pyridin-6-yl)-1-(4-(3-oxopiperazin-1-yl)cyclohexyl)-1,3-dihydro-2H-benzo[d]imidazol-2-one] yielded an IC50 greater than 50 µM.
In the case of `COc1cc(-c2cc3[nH]c(=O)n(C4CCC(N5CCC6(CC5)COC6)CC4)c3cc2C(C)C)cn2ncnc12` (centres unmarked) [Example 239, 1-(4-(2-oxa-7-azaspiro[3.5]nonan-7-yl)cyclohexyl)-6-isopropyl-5-(8-methoxy-[1,2,4]triazolo[1,5-a]pyridin-6-yl)-1,3-dihydro-2H-benzo[d]imidazol-2-one], the IC50 is reported as 13 µM.
`CCc1cc2c(cc1-c1cc(OC)c3ncnn3c1)[nH]c(=O)n2[C@@H]1CCCN(CC(CC)CC)C1` [Example 178, (R)-6-ethyl-1-(1-(2-ethylbutyl)piperidin-3-yl)-5-(8-methoxy-[1,2,4]triazolo[1,5-a]pyridin-6-yl)-1,3-dihydro-2H-benzo[d]imidazol-2-one] gave an IC50 of 7.47 µM.
`COc1cc(-c2cc3[nH]c(=O)n(C4CCC(N5CCCC5)CC4)c3cc2C(C)C)cn2ncnc12` (centres unmarked) [Example 231, 6-isopropyl-5-(8-methoxy-[1,2,4]triazolo[1,5-a]pyridin-6-yl)-1-(4-(pyrrolidin-1-yl)cyclohexyl)-1,3-dihydro-2H-benzo[d]imidazol-2-one] showed an IC50 of 15.1 µM.
Work on `COc1cc(-c2cc3[nH]c(=O)n([C@@H]4CCCN(CCC(C)(C)C)C4)c3cc2C(C)C)cn2ncnc12` [Example 210, (R)-1-(1-(3,3-dimethylbutyl)piperidin-3-yl)-6-isopropyl-5-(8-methoxy-[1,2,4]triazolo[1,5-a]pyridin-6-yl)-1,3-dihydro-2H-benzo[d]imidazol-2-one] yielded an IC50 of 2.36 µM.
In the case of `CCc1cc2c(cc1-c1cc(OC)c3ncnn3c1)[nH]c(=O)n2[C@@H]1CCCN(CCC(F)(F)F)C1` [Example 183, (R)-6-ethyl-5-(8-methoxy-[1,2,4]triazolo[1,5-a]pyridin-6-yl)-1-(1-(3,3,3-trifluoropropyl)piperidin-3-yl)-1,3-dihydro-2H-benzo[d]imidazol-2-one], the IC50 is reported as 33.5 µM.
With `Cc1c(-c2cc3[nH]c(=O)n([C@H]4CC[C@@H](N(C)C)CC4)c3cc2C(C)C)cn2ncnc2c1C` [Example 185, 5-(7,8-dimethyl-[1,2,4]triazolo[1,5-a]pyridin-6-yl)-1-((1s,4s)-4-(dimethylamino)cyclohexyl)-6-isopropyl-1,3-dihydro-2H-benzo[d]imidazol-2-one] the IC50 was 7.07 µM.
For `CCCN1CCC[C@@H](n2c(=O)[nH]c3cc(-c4cc(OC)c5ncnn5c4)c(CC)cc32)C1` [Example 179, (R)-6-ethyl-5-(8-methoxy-[1,2,4]triazolo[1,5-a]pyridin-6-yl)-1-(1-propylpiperidin-3-yl)-1,3-dihydro-2H-benzo[d]imidazol-2-one], the IC50 was 6.86 µM.
Compound `COc1cc(-c2cc3[nH]c(=O)n(C4CCC(N5CC(O)(C(F)(F)F)C5)CC4)c3cc2C(C)C)cn2ncnc12` (single isomer, unassigned) [Example 241, 1-(4-(3-hydroxy-3-(trifluoromethyl)azetidin-1-yl)cyclohexyl)-6-isopropyl-5-(8-methoxy-[1,2,4]triazolo[1,5-a]pyridin-6-yl)-1,3-dihydro-2H-benzo[d]imidazol-2-one] has an IC50 greater than 50 µM.
`COc1cc(-c2cc3[nH]c(=O)n([C@H]4CC[C@@H](NCC5CCOCC5)CC4)c3cc2C(C)C)cn2ncnc12` [Example 196, 6-isopropyl-5-(8-methoxy-[1,2,4]triazolo[1,5-a]pyridin-6-yl)-1-((1s,4s)-4-(((tetrahydro-2H-pyran-4-yl)methyl)amino)cyclohexyl)-1,3-dihydro-2H-benzo[d]imidazol-2-one] gave an IC50 of 8.96 µM.
